# “Also recorded” adds a separate entry of the source. Where no end group is shown, it is not given here.
# B1: PhrA (peptide)
# peptide: ARNQT
# notes: PhrA, the mature linear pentapeptide derived from the phrA gene product of Bacillus subtilis; also called PhrA pentapeptide; ARNQT; source: synthetic peptide (Peptides and Elephant, purity >95%)
# Experiments:
# [1] = system: reporter cells BIB625 (RapA-Spo0F FRET); assay: Bioassay of supernatants: PhrA depletion from medium measured with fresh reporter cells; assay type: cell-based, Bacillus subtilis; conditions: 10 nM PhrA, within a few minutes
# Description: Induction of FRET reporters: Reporter cells were inoculated from a single colony into 5 ml of LB medium with antibiotics and incubated on a rotary shaker (Infors HT Multitron) at 180 rpm and 37 °C for 7 h. Cells were resuspended at OD600 nm = 0.003 in 5 ml of S7_50 medium and incubated for 16 h overnight. Expression of the fusion proteins was induced by resuspending the reporter cells at an OD600 nm =0.04 in 10 ml of fresh S7_50 supplemented with 100 µM IPTG in a 100-ml flask. When applicable, protein expression from a xylose-inducible promoter was induced by adding xylose at a final concentration of 1% (w/v). Cells were grown to a final OD600 nm ~1.6.
# Bioassay and supernatant analysis: The supernatants were collected after centrifugation of stimulated cells. […] The supernatants were then filtered through a 0.2-µm PES membrane, and analyzed as described above with the following modification. To increase the sensitivity of the bioassay, the volume of analyzed supernatant and the incubation time were increased to VS = 1950 µl and tB = 20 min + 1 min, respectively. […]
# The FRET efficiency was determined using the formula:5 FRET=CFPpost−CFPpre/CFPpost⋅100%, where CFPpre and CFPpost denote the emission levels before and after acceptor photobleaching, respectively. […] CFPpre is then evaluated at the end of the bleaching period by extrapolating the linear fit accordingly (see Fig. 2b). […]
# [2] = PhrA stability in cell-free supernatant (Supplementary Fig. 5B); assay type: in vitro ADME
# Description: Bioassay and supernatant analysis: The supernatants were collected after centrifugation of stimulated cells. Aliquots (VS = 450 µl) of the cell-free supernatants were mixed with 50 µl of a 10× suspension of fresh unstimulated reporter cells, for tB = 5 min + 1 min (time for incubation plus centrifugation) at room temperature and then processed as described above. To detect extracellular PhrA in S7_50 cultures, wild-type cells (BIB224) were grown for 5 h to an OD600 nn ~ 1.6 and pelleted by centrifugation. The supernatants were then filtered through a 0.2-µm PES membrane, and analyzed as described above with the following modification. To increase the sensitivity of the bioassay, the volume of analyzed supernatant and the incubation time were increased to VS = 1950 µl and tB = 20 min + 1 min, respectively.
# CFP-RapA = biological target: T1, CFP-RapA (Bacillus subtilis 168, UniProt Q00828 1-378); assay: FRET or BRET; loss of CFP-RapA/Spo0F-YFP FRET in B. subtilis reporter cells against PhrA; EC50 is the intracellular PhrA concentration of the half-maximal response, inferred by fitting all data of Figs. 4 and 5 to the pump-probe model (Hill function); conditions: one partner purified
# T1 construct: RapA, Rap-family RRNPP-type receptor (response regulator aspartate phosphatase A) of Bacillus subtilis; rapA amplified from B. subtilis 168 genomic DNA; ecfp(Bs) is joined to the N-terminus of RapA by a GSGGV linker; also called RapA receptor; RapA-CFP; source: B. subtilis reporter strain BIB625 (ΔrapA-phrA Δspo0F), IPTG-induced from the amyE locus, in living cells; not shown: eCFP(Bs), …
# T1 sequence (looked up): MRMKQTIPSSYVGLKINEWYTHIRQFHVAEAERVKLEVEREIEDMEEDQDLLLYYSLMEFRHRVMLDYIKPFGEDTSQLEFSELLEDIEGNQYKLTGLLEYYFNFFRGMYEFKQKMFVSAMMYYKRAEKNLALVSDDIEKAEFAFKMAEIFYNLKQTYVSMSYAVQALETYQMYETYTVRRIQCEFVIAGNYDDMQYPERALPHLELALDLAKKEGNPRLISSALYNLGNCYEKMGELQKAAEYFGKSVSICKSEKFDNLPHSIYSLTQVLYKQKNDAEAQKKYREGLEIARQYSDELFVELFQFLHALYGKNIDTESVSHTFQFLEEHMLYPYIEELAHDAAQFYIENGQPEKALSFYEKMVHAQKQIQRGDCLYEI
Molecule,extracellular PhrA level after stimulation [1],"time for which bioassay FRET remained unchanged (stability) ([2]; 10 nM PhrA in cell-free supernatant, room temperature, bioassay read-out, ne = 3)","bioassay FRET during incubation in cell-free supernatant ([2]; 10 nM PhrA in cell-free supernatant, room temperature, up to at least 8 h, ne = 3)","extracellular stability ([2]; 10 nM PhrA, cell-free supernatant)",EC50 (CFP-RapA)
ARNQT [PhrA],below the detection limit of the bioassay,at least 8 h,~ 7%,stable in cell-free supernatants; also recorded: stable for hours,–
B1,–,–,–,–,38 µM

# — article PMC7055314, “Ratiometric population sensing by a pump-probe signaling system in Bacillus subtilis” (Nature Communications, 2020)
